Measurements taken from patent publication US7157596B2, “Inhibitors of serine protease activity of matriptase or MTSP1” (Dendreon Corporation, priority 2000, dated 2007).

What was measured:
Type in all cases: biochemical
[1] = target: T1, recombinant serine protease domain of matriptase or MTSP1 (rMAP) (Homo sapiens, UniProt Q9Y5Y6); experiment: Amidolytic assay for inhibition of serine protease activity of matriptase or MTSP1 (rMAP); details: 30 min preincubation of compound and rMAP; substrate S-2765
T1 construct: host or cells: Pichia pastoris SMD1168 / pPIC9K-MTSP1
T1 sequence (Q9Y5Y6 615-855): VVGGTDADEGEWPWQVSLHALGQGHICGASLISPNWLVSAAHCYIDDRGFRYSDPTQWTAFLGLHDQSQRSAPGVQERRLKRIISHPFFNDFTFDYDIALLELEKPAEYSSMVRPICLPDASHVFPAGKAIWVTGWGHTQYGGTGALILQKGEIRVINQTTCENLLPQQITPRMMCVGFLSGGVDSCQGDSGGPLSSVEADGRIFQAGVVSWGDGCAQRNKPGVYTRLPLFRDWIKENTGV
Experimental: The ability of the compounds of the present invention to act as inhibitors of rMAP catalytic activity was assessed by determining the inhibitor-induced inhibition of amidolytic activity by the MAP, as measured by IC50 values.
The assay buffer was HBSA (10 mM Hepes, 150 mM sodium chloride, pH 7.4, 0.1% bovine serum albumin). All reagents were from Sigma Chemical Co. (St. Louis, Mo.), unless otherwise indicated.
Two IC50 assays (a) one at either 30-minutes or 60-minutes (a 30-minute or a 60-minute preincubation of test compound and enzyme) and (b) one at 0-minutes (no preincubation of test compound and enzyme) were conducted. […] Following either a 30-minute or a 60-minute incubation at ambient temperature, the assay was initiated by the addition of 50 microliters of the substrate S-2765 (N-α-Benzyloxycarbonyl-D-arginyl-L-glycyl-L-arginine-p-nitroaniline dihydrochloride; DiaPharma Group, Inc.; Franklin, Ohio) to each well, yielding a final assay volume of 200 microliters and a final substrate concentration of 100 μM (about 4-times Km). Before addition to the assay mixture, S-2765 was reconstituted in deionized water and diluted in HBSA. For the IC50 assay at 0 minutes; the same reagents were combined: 50 microliters of HBSA, 50 microliters of the test compound, diluted (covering the identical concentration range) in HBSA (or HBSA alone for uninhibited velocity measurement), and 50 microliters of the substrate S-2765. The assay was initiated by the addition of 50 microliters of rMAP. The final concentrations of all components were identical in both IC50 assays (at 30- or 60- and 0-minute).
The initial velocity of chromogenic substrate hydrolysis was measured in both assays by the change of absorbance at 405 nm using a Thermo Max® Kinetic Microplate Reader (Molecular Devices) over a 5 minute period, in which less than 5% of the added substrate was utilized. The concentration of added inhibitor, which caused a 50% decrease in the initial rate of hydrolysis was defined as the respective IC50 value in each of the two assays (30- or 60-minutes and 0-minute).

Factor Xa = target: T2, Factor Xa (Homo sapiens, UniProt P00742); experiment: In vitro enzyme assay for specificity: Factor Xa; details: 30 min preincubation; substrate S-2765; read-out: FXa IC50 30 Min
T2 construct: purchased Enzyme Research Laboratories, Inc. (South Bend, Ind.)
T2 sequence (P00742 235-488 limits assumed): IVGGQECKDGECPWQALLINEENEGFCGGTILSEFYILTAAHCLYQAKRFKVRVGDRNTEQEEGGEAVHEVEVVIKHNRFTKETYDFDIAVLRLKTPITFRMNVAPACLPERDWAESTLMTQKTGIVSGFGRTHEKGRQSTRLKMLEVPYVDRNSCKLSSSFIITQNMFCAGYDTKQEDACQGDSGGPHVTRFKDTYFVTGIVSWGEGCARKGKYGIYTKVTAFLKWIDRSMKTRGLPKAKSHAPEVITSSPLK
T2 sequence (P00742 41-179 partner limits assumed): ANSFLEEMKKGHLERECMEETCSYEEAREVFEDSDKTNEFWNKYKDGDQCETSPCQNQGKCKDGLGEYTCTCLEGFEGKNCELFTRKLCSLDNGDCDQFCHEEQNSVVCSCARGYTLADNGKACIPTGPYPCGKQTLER
Experimental: (§1) The ability of compounds to act as a selective inhibitor of matriptase activity was assessed by determining the concentration of test-compound which inhibited the activity of matriptase by 50%, (IC50) as described in Example A, and comparing IC50 value for matriptase to that determined for all or some of the following serine proteases: thrombin, recombinant tissue plasminogen activator (rt-PA), plasmin, activated protein C, chymotrypsin, factor Xa and trypsin.
(§2) The buffer used for all assays was HBSA (10 mM HEPES, pH 7.5, 150 mM sodium chloride, 0.1% bovine serum albumin).
(§3) The assay for IC50 determinations was conducted by combining in appropriate wells of a Corning microtiter plate, 50 microliters of HBSA, 50 microliters of the test compound at a specified concentration (covering a broad concentration range) diluted in HBSA (or HBSA alone for V0 (uninhibited velocity) measurement), and 50 microliters of the enzyme diluted in HBSA. Following a 30 minute incubation at ambient temperature, 50 microliters of the substrate at the concentrations specified below were added to the wells, yielding a final total volume of 200 microliters. The initial velocity of chromogenic substrate hydrolysis was measured by the change in absorbance at 405 nm using a Thermo Max® Kinetic Microplate Reader over a 5 minute period in which less than 5% of the added substrate was utilized. The concentration of added inhibitor which caused a 50% decrease in the initial rate of hydrolysis was defined as the IC50 value.
Factor Xa catalytic activity was determined using the chromogenic substrate S-2765 (N-benzyloxycarbonyl-D-arginine-L-glycine-L-arginine-p-nitro aniline), obtained from DiaPharma Group (Franklin, Ohio). All substrates were reconstituted in deionized water prior to use. […] Purified human Factor X was obtained from Enzyme Research Laboratories, Inc. (South Bend, Ind.) and Factor Xa (FXa) was activated and prepared from it as described [Bock, P. E., Craig, P. A., Olson, S. T., and Singh, P. Arch. Biochem. Biophys. 273:375–388 (1989)]. The enzyme was diluted into HBSA prior to assay in which the final concentration was 0.25 nM.

human α-thrombin = target: T3, human α-thrombin (Homo sapiens, UniProt P00734); experiment: In vitro enzyme assay for specificity: Thrombin (fIIa); details: 30 min preincubation; substrate Pefachrome t-PA
T3 construct: Purified human α-thrombin was obtained from Enzyme Research Laboratories, Inc; purchased Enzyme Research Laboratories, Inc
Experimental: as §1, §2, §3
Enzyme activity was determined using the chromogenic substrate, Pefachrome t-PA (CH3SO2-D-hexahydrotyrosine-glycyl-L-Arginine-p-nitroaniline, obtained from Pentapharm Ltd.). The substrate was reconstituted in deionized water prior to use. Purified human α-thrombin was obtained from Enzyme Research Laboratories, Inc. The buffer used for all assays was HBSA (10 mM HEPES, pH 7.5, 150 mM sodium chloride, 0.1% bovine serum albumin).
The initial velocity of Pefachrome t-PA hydrolysis was measured by the change in absorbance at 405 nm using a Thermo Max® Kinetic Microplate Reader over a 5 minute period in which less than 5% of the added substrate was utilized. The concentration of added inhibitor which caused a 50% decrease in the initial rate of hydrolysis was defined as the IC50 value.

human plasmin = target: T4, human plasmin (Homo sapiens, UniProt P00747); experiment: In vitro enzyme assay for specificity: Plasmin; details: 30 min preincubation; substrate S-2366
T4 construct: Purified human plasmin was obtained from Enzyme Research Laboratories, Inc; purchased Enzyme Research Laboratories, Inc
T4 sequence (P00747 581-810 limits assumed): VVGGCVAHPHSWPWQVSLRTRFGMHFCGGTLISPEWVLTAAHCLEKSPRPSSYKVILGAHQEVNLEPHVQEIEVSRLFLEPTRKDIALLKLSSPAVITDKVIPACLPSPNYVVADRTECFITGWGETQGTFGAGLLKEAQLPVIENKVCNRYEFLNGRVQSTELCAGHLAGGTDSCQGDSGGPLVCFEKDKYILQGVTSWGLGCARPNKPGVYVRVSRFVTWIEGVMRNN
T4 sequence (P00747 97-580 partner limits assumed): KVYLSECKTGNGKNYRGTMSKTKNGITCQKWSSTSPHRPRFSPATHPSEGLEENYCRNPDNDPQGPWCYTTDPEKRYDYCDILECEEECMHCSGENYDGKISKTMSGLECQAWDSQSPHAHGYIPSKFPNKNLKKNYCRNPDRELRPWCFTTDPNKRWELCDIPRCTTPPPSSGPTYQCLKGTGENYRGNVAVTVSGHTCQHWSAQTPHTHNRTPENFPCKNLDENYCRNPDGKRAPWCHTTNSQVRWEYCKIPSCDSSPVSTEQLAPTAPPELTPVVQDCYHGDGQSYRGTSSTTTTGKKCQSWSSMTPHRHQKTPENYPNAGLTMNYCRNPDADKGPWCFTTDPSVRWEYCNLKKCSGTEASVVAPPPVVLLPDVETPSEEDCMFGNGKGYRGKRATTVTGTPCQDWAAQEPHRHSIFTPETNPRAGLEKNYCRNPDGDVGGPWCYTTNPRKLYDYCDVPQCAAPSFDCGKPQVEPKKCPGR
Experimental: as §1, §2, §3
Plasmin catalytic activity was determined using the chromogenic substrate, S-2366 [L-pyroglutamyl-L-prolyl-L-arginine-p-nitroaniline hydrochloride], which was obtained from DiaPharma group. The substrate was made up in deionized water followed by dilution in HBSA prior to the assay in which the final concentration was 300 micromolar (about 2.5-times Km). Purified human plasmin was obtained from Enzyme Research Laboratories, Inc. The enzyme was diluted into HBSA prior to assay in which the final concentration was 1.0 nM.

[2] = target: T5, bovine pancreatic trypsin (Bos taurus, UniProt P00760); experiment: In vitro enzyme assay for specificity: Trypsin; details: 30 min preincubation; substrate S-2222; read-out: Thypsin IC50 30 Min
T5 construct: Purified (3×-crystallized; TRL3) bovine pancreatic trypsin was obtained from Worthington Biochemical Corp; purchased Worthington Biochemical Corp. TRL3; host or cells: bovine pancreas
T5 sequence (P00760 24-246): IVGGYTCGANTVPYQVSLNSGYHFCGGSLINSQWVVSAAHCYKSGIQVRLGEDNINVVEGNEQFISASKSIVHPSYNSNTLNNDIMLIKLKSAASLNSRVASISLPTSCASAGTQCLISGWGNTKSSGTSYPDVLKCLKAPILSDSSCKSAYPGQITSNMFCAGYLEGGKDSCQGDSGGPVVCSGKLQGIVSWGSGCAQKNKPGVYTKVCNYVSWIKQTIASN
Experimental: as §1, §2, §3
Trypsin catalytic activity was determined using the chromogenic substrate, S-2222 (benzoyl-L-isoleucine-L-glutamic acid-[gamma-methyl ester]-L-arginine-p-nitroanilide), which was obtained from DiaPharma Group. […] Purified (3×-crystallized; TRL3) bovine pancreatic trypsin was obtained from Worthington Biochemical Corp. The enzyme was reconstituted in deionized water and diluted into HBSA prior to assay in which the final concentration was 0.5 nM.

SMILES	IC50 [1] [nM]	IC50 (Factor Xa) [nM]	IC50 (human α-thrombin) [nM]	IC50 (human plasmin) [nM]	IC50 [2] [nM]
N=C(N)NCCC[C@@H](C=O)NC(=O)CNC(=O)[C@@](N)(CCC(=O)O)Cc1cccc(C(=N)N)c1 [A]	< 100	> 2500	> 2500	500 to 2500	250 to 500
COC(=O)N[C@](CCC(=O)O)(Cc1cccc(C(=N)N)c1)C(=O)N[C@@H](C)C(=O)N[C@H](C=O)CCCNC(=N)N [F]	< 100	> 2500	> 2500	500 to 2500	500 to 2500
COC(=O)CCC(N)(Cc1cccc(C(=N)N)c1)C(=O)NCC(=O)NC(C=O)CCCNC(=N)N (stereo not drawn) [C]	< 100	> 2500	> 2500	500 to 2500	500 to 2500
CCNC(=O)N[C@](CCC(=O)O)(Cc1cccc(C(=N)N)c1)C(=O)NCC(=O)N[C@H](C=O)CCCNC(=N)N [H]	< 100	> 2500	> 2500	> 2500	> 2500
COC(=O)N[C@](CCC(=O)O)(Cc1cccc(C)c1)C(=O)N[C@@H](C)C(=O)N[C@H](C=O)CCCNC(=N)N [G]	< 100	> 2500	> 2500	500 to 2500	< 100
CC(=O)N[C@](CCC(=O)O)(Cc1cccc(C(=N)N)c1)C(=O)NCC(=O)N[C@H](C=O)CCCNC(=N)N [E]	< 100	> 2500	> 2500	> 2500	> 2500
CCOC(=O)N[C@](CCC(=O)O)(Cc1cccc(C(=N)N)c1)C(=O)NCC(=O)N[C@H](C=O)CCCNC(=N)N [K]	< 100	> 2500	> 2500	> 2500	> 2500
COC(=O)N[C@](CCC(=O)O)(Cc1cccc(C(=N)N)c1)C(=O)NCC(=O)N[C@H](C=O)CCCNC(=N)N [D]	< 100	> 2500	> 2500	> 2500	> 2500
CC(C)COC(=O)N[C@](CCC(=O)O)(Cc1cccc(C(=N)N)c1)C(=O)NCC(=O)N[C@H](C=O)CCCNC(=N)N [L]	< 100	> 2500	> 2500	> 2500	> 2500
N=C(N)NCCC[C@@H](C=O)NC(=O)CNC(=O)[C@@](CCC(=O)O)(Cc1cccc(C(=N)N)c1)NC(=O)Oc1ccccc1 [M]	< 100	500 to 2500	> 2500	> 2500	250 to 500
COC(=O)N[C@](CCC(=O)O)(Cc1ccccc1)C(=O)NCC(=O)N[C@H](C=O)CCCNC(=N)N [I]	< 100	500 to 2500	> 2500	> 2500	500 to 2500
N=C(N)NCCCC(C=O)NC(=O)CNC(=O)C(CCC(=O)O)(Cc1cccc(C(=N)N)c1)NS(=O)(=O)Cc1ccccc1 (stereo not drawn) [B]	< 100	> 2500	500 to 2500	> 2500	> 2500
